Measured values as given in patent publication US6169181A, “Compounds useful to treat retroviral infections” (Pharmacia & Upjohn Company, priority 1998, dated 2001).
Several values for one entry are separate records, joined by “and”; a condition that tells them apart may be missing. Equal values may be shown once.

Legend:
[1] = target: T1, HIV-1 protease (Human immunodeficiency virus type 1 group M subtype B, UniProt P04585); test: biochemical; settings: Table I; for inhibition at 3.3 µM / inhibition at 10 µM / inhibition at 30 µM / inhibition at 0.123 µM / inhibition at 0.37 µM / inhibition at 1.1 µM: read-out: Protease % Inhib
Experimental: (§1) The HIV protease screening assay is based on fluorescently labeled substrate which can be resolved from nonlabeled cleavage product using special beads coated with streptavidin. The substrate is biotinylated at the amino terminal arginine and fluorescently labeled with fluorescein isothiocynate (FITC) at the carboxyl terminal lysine. This assay has been employed to detect novel, nonpeptidic inhibitors of HIV-1 protease. Substrate (20 μM of 0.2 μM), sample (10 μl of desired concentraion), and enzyme (10 μl of 0.1 μM) are added to a 96 well pandex plate. The assay is run in 0.1 M sodium acetate buffer at pH 5.5 in the presence of 1.0 M sodium chloride and 0.05% NP-40 with incubated in the dark for one hour at room temperature. Strepavidin coated polystyrene beads {40 μl of 0.1% (w/v)} are added and the plate is incubated in the dark for an additional half hour. The labeled cleavage product is separated from the unreacted substrate via filtration and is read on the Idexx screen machine. The data are analyzed by appropriate computer algorithms to ascertain percent inhibition values.

[2] = target: T1, HIV-1 protease; test: biochemical; settings: Table I; read-out: HIV Protease FITC Assay Ki
Experimental: as §1, with “This assay has been employed to detect novel, nonpeptidic inhibitors of HIV-1 protease.” left out
Determination of Ki values utilizes the same materials and equipment employed for percent inhibition studies. Two-fold serial dilutions are made for a given inhibitor from 2, 3 or 4 starting concentrations with a total of 24, 36 or 48 individual inhibitor concentrations. These dilutions are performed utilizing the BioMek robotics system. The assay consists of 10 μL of 40 nM HIV-1 protease, 10 μL of the various inhibitor concentrations, and 20 μL of 200 μM substrate (40 μL total). The reaction is allowed to proceed for 90 min at room temperature, terminated with 40 μL of avidin beads and processed (supra vide). An inhibitor with a known K; is run in parallel to verify the validity of the assay. The data is processed utilizing a computer program employing a nonlinear least square analysis of the data to generate the Ki values.

SMILES	PROTEASE % INHIB. ([1]; Dose 0.123 μM)	PROTEASE % INHIB. ([1]; Dose 0.370 μM)	PROTEASE % INHIB. ([1]; Dose 1.100 μM)	inhibition at 3.3 µM ([1]; Dose 3.300 μM)	inhibition at 10 µM ([1]; Dose 10.000 μM)	inhibition at 30 µM ([1]; Dose 30.000 μM)	Ki [2]	PROTEASE % INHIB. ([1]; Dose 3.300 μM)	PROTEASE % INHIB. ([1]; Dose 10.000 μM)	PROTEASE % INHIB. ([1]; Dose 30.000 μM)	inhibition at 0.123 µM ([1]; Dose 0.123 μM)	inhibition at 0.37 µM ([1]; Dose 0.370 μM)	inhibition at 1.1 µM ([1]; Dose 1.100 μM)
CCCC1(CCC)CC(O)=C(C(CC)c2cccc(NS(=O)(=O)c3cn(C)cn3)c2)C(=O)O1 (single isomer, unassigned) [Example 53, (R or S)-N-[3-[1-(4-hydroxy-2-oxo-6,6-dipropyl-5,6-dihydro-2H-pyran-3-yl)-propyl]-phenyl]-1-methyl-1H-imidazole-4-sulfonamide]	88.61%	97.74%	97.95%	99.6%	90.2%	84.4%	0.9 nM	–	–	–	–	–	–
CCCC1(CCC)CC(O)=C(C(CC)c2cccc(NS(=O)(=O)c3cccc4cccnc34)c2)C(=O)O1 (single isomer, unassigned) [Example 54, (S or R)-N-[3-[1-(4-Hydroxy-2-oxo-6,6-dipropyl-5,6-dihydro-2H-pyran-3-yl)-propyl]-phenyl]-8-quinolinesulfonamide]	46.64%	72.41%	87.91%	–	–	–	13.3 nM	89.11%	87.77%	91.99%	–	–	–
CCCC1(CCC)CC(O)=C(C(CC)c2cccc(NS(=O)(=O)c3cn(C)cn3)c2)C(=O)O1 (single isomer, unassigned) [Example 55, (S or R)-N-[3-[1-(4-hydroxy-2-oxo-6,6-dipropyl-5,6-dihydro-2H-pyran-3-yl)-propyl]-phenyl]-1-methyl-1H-imidazole-4-sulfonamide]	< 10%	18.77%	58.27%	–	–	–	1.7 nM	86.98%	98.33%	85.88%	–	–	–
CCCC1(CCC)CC(O)=C(C(c2cccc(NS(=O)(=O)c3cn(C)cn3)c2)C2CC2)C(=O)O1 (single isomer, unassigned) [Example 56, (R or S)-N-[3-[1-(4-Hydroxy-2-oxo-6,6-dipropyl-5,6-dihydro-2H-pyran-3-yl)-cyclopropylmethyl]-phenyl]-1-methyl-1H-imidazole-4-sulfonamide]	–	–	–	105%	115%	111%	0.23 nM	–	–	–	104%	108%	105%
CCCC1(CCC)CC(O)=C(C(c2cccc(NS(=O)(=O)c3cn(C)cn3)c2)C2CC2)C(=O)O1 (single isomer, unassigned) [Example 57]	99.07%	105.17%	110.68%	–	–	–	0.36 nM	97.8%	104.74%	115.02%	–	–	–
CC[C@H](Cc1ccccc1)c1cc(O)c(C(c2cccc(NS(=O)(=O)c3cn(C)cn3)c2)C2CC2)c(=O)o1 (single isomer, unassigned) [Example 137, N-(3-(R or S)-{Cyclopropyl-[6-(1-(R)-ethylphenethyl)-4-hydroxy-2-oxo-2H-pyran-3-yl]-methyl}-phenyl)-1-methyl-1H-imidazole-4-sulfonamide]	–	–	–	110%	98.2%	93.8%	0.52 nM and 0.7 nM	–	–	–	98.8%	91.5%	101%
CC[C@H](Cc1ccccc1)c1cc(O)c(C(c2cccc(NS(=O)(=O)c3cn(C)cn3)c2)C2CC2)c(=O)o1 (single isomer, unassigned) [Example 138, N-(3-(R or S)-[Cyclopropyl-[6-(l-(R)-ethylphenethyl)-4-hydroxy-2-oxo-2H-pyran-3-yl]-methyl}-phenyl)-1-methyl-1H-imidazole-4-sulfonamide]	–	–	–	99.6%	94.8%	105%	0.73 nM and 1.4 nM	–	–	–	101%	95.5%	101%
CC[C@@H](Cc1ccccc1)c1cc(O)c(C(c2cccc(NS(=O)(=O)c3cn(C)cn3)c2)C2CC2)c(=O)o1 (single isomer, unassigned) [Example 139, N-(3-(R or S)-{Cyclopropyl-[6-(1-(S)-ethylphenethyl)-4-hydroxy-2-oxo-2H-pyran-3-yl]-methyl}-phenyl)-1-methyl-1H-imidazole-4-sulfonamide]	–	–	–	99.3%	99.3%	103%	1.89 nM	–	–	–	98.3%	101%	105%
CC[C@@H](Cc1ccccc1)c1cc(O)c(C(c2cccc(NS(=O)(=O)c3cn(C)cn3)c2)C2CC2)c(=O)o1 (single isomer, unassigned) [Example 140, N-(3-(R or S)-{Cyclopropyl-[6-(1-(S)-ethylphenethyl)-4-hydroxy-2-oxo-2H-pyran-3-yl]-methyl}-phenyl)-1-methyl-1H-imidazole-4-sulfonamide]	103.22%	96.01%	107.37%	–	–	–	1.44 nM	112.51%	112.53%	119.14%	–	–	–
CC[C@H](Cc1ccccc1)c1cc(O)c(C(c2cccc(NS(=O)(=O)c3ccccn3)c2)C2CC2)c(=O)o1 (single isomer, unassigned) [Example 141, N-(3-(R or S)-{Cyclopropyl-[6-(1-(R)-ethylphenethyl)-4-hydroxy-2-oxo-2H-pyran-3-yl]-methyl}-phenyl)-2-pyridinesulfonamide]	–	–	–	88.3%	97.8%	98.5%	1.4 nM	–	–	–	78.7%	88.7%	92%
CC[C@H](Cc1ccccc1)c1cc(O)c(C(c2cccc(NS(=O)(=O)c3ccccn3)c2)C2CC2)c(=O)o1 (single isomer, unassigned) [Example 142, N-(3-(R or S)-{Cyclopropyl-[6-(1-(R)-ethylphenethyl)-4-hydroxy-2-oxo-2H-pyran-3-yl]-methyl}-phenyl)-2-pyridinesulfonamide]	78.01%	92.52%	106.64%	–	–	–	1.6 nM	105.15%	110.58%	106.77%	–	–	–
CC[C@H](Cc1ccccc1)c1cc(O)c(C(c2cccc(NS(=O)(=O)c3nccn3C)c2)C2CC2)c(=O)o1 (single isomer, unassigned) [Example 143, N-(3-(R or S)-{Cyclopropyl-[6-(1-(R)-ethylphenethyl)-4-hydroxy-2-oxo-2H-pyran-3-yl]-methyl}-phenyl)-1-methyl-1H-imidazole-2-sulfonamide]	–	–	–	102%	101%	103%	0.8 nM	–	–	–	80.8%	97.7%	105%
CC[C@H](Cc1ccccc1)c1cc(O)c(C(c2cccc(NS(=O)(=O)c3nccn3C)c2)C2CC2)c(=O)o1 (single isomer, unassigned) [Example 144, N-(3-(R or S)-{Cyclopropyl-[6-(1-(R)-ethylphenethyl)-4-hydroxy-2-oxo-2H-pyran-3-yl]-methyl}-phenyl)-1-methyl-1H-imidazole-2-sulfonamide]	80.58%	87.39%	93.82%	–	–	–	1.2 nM	100.01%	98.12%	95.88%	–	–	–
